Source: article PMC11767661 (Molecules, 2025)
Entries after “also recorded” stand apart in the source; their conditions may differ.

What was measured:
[1] = Peptide hydrolysis in Hepes buffer alone or with Cu2+/Zn2+, followed by HPLC-ESI/MS; assay type: physicochemical; conditions: 50 mM HEPES pH 7.4, 4 °C, LC-MS relative % area
Experimental: Herein, we analyzed the hydrolytic process of Aβ peptides in 50 mM Hepes buffer at 7.4 physiological pH over two weeks at two distinct temperatures, 4 °C and 37 °C, using mass spectrometry coupled with high-performance liquid chromatography (HPLC-MS) for precise analysis. Additionally, we explored the impact of copper(II) or zinc(II) ions, each added in a 1:1 molar ratio to the peptides, on the resulting hydrolytic fragmentation patterns. It is worth noting that metal binding only occurs at the N-terminal region of Aβ peptides, specifically interacting with histidine residues. The commonly accepted peptide sequence 1–16 (^1[…]^16, Aβ16) is widely used as a model for this interaction due to its inclusion of all three histidines (His6, His13, and His14) known for their key roles in coordinating metal ions. Therefore, the initial studies were performed on this short peptide.
General. All chemicals were of reagent grade and purchased from Sigma-Aldrich. Preparative HPLC was carried out with a Shimadzu LC-20AD Prominence instrument equipped with a diode array detector. Mass spectra and LCMS/MS data were performed with an LCQ ADV MAX ion-trap mass spectrometer equipped with an ESI ion source. The instrument was run in an automated LC-MS/MS mode and using a surveyor HPLC system (Thermo Finnigan, San Jose, CA, USA) equipped with a Phenomenex Jupiter 4u Proteo column (4 μm, 150 × 2.0 mm). For the analysis of peptide fragments, Bioworks 3.1 and Xcalibur 2.0.7 SP1 software were used (Thermo Finnigan, San Jose, CA, USA).
Peptide hydrolysis in the presence of metal ions. Solutions of Aβ16 and Aβ28 (500 µM) alone or with the addition of Cu(NO3)2 (1 eqv., 500 µM) or ZnCl2 (1 eqv., 500 µM) were prepared in 50 mM Hepes buffer at pH 7.4. The solutions were then incubated at 4 °C or 37 °C (only for Aβ16) in atmospheric air and every 7 days aliquots were taken, diluted to the 25 µM final concentration with Hepes buffer, and analyzed by HPLC-ESI/MS. The solution of R1τ, Ac-R1τ, αSyn15, and Ac-αSyn15 (25 µM) fragments were incubated in 50 mM Hepes buffer at 4 °C for 14 days; at the same time, solutions also containing copper(II) or zinc(II) in a 1:1 molar ratio respect to peptide were prepared. The elution was performed by using 0.1% HCOOH in distilled water (solvent A) and 0.1% HCOOH in acetonitrile (solvent B), with a flow rate of 0.2 mL/min. Elution started with 98% solvent A for 5 min, followed by a linear gradient from 98 to 55% A in 55 min. […] For the analysis of peptide fragments, Bioworks 3.1 and Xcalibur 2.0.7 SP1 software were used (Thermo Finnigan, San Jose, CA, USA).

[2] = complex of copper(II) with the buffer; cited from earlier work
From the text: Shifting in fragmentation sites could be related to structural alterations induced by the N-protection. It is commonly accepted that the N-capping ...

[3] = 50 mM Hepes buffer at pH 7.4, peptide alone; conditions: 4 °C, up to 14 days
[4] = 50 mM HEPES buffer at pH 7.4 with 25 µM zinc(II) chloride; conditions: 4 °C, up to 14 days
[5] = 50 mM HEPES buffer at pH 7.4 with 25 µM copper(II) nitrate; conditions: 4 °C, up to 14 days
[6] = Aβ28 500 µM + 500 µM copper(II) nitrate, 14 days
[7] = Aβ28 500 µM + 500 µM copper(II) nitrate, 21 days
[8] = Aβ28 500 µM + 500 µM zinc(II) chloride, 14 days
[9] = Aβ28 500 µM + 500 µM zinc(II) chloride, 21 days

Compound	Remaining amount of Aβ28 and species detected by LC-MS (Table S2) [1, 6]	Remaining amount of Aβ28 and species detected by LC-MS (Table S2) [1, 7]	Remaining amount of Aβ28 and species detected by LC-MS (Table S2) [1, 8]	Remaining amount of Aβ28 and species detected by LC-MS (Table S2) [1, 9]	Remaining amount of Aβ28 and species detected by LC-MS (Table S2) ([1]; Aβ28 500 µM alone, 14 days)	cleaved bond [3]	cleaved bond [4]	cleaved bond [5]	also measured
DAEFRHDSGYEVHHQKLVFFAE.D [hydrolytic fragment 1-22 of Aβ28]	3%	5%	9%	7%	–	–	–	–	–
E.FRHDSGYEVHHQ.K [hydrolytic fragment 4-15 of Aβ28]	–	–	–	–	2%	–	–	–	–
O=S(=O)(O)CCN1CCN(CCO)CC1 [Hepes]	–	–	–	–	–	–	–	–	Copper(II) complex formation constant (log K) [2]: 3
H-MDVFMKGLSKAKEGV-NH2	–	–	–	–	–	–	–	–	amount (%) of intact peptide after hydrolysis: > 90%
DAEFRHDSGYEVHHQKLVF.F [hydrolytic fragment 1-19 of Aβ28]	1%	1%	7%	6%	–	–	–	–	–
K.LVFFAEDVGSNK [hydrolytic fragment 17-28 of Aβ28]	1%	1%	5%	4%	22%	–	–	–	–
Ac-^256VKSKIGSTENLKHQPGGG^273-NH2	–	–	–	–	–	K259-I260, 14 days; also recorded: G261-S262, 14 days; also recorded: I260-G261, 14 days; also recorded: E264-N265, 14 days; also recorded: S258-K259, 14 days; also recorded: Q269-P270, 14 days; also recorded: K267-H268, 14 days; also recorded: L266-K267, 14 days	G261-S262, 14 days; also recorded: N265-L266, 14 days; also recorded: E264-N265, 14 days; also recorded: K267-H268, 14 days	G261-S262, 14 days; also recorded: N265-L266, 14 days; also recorded: E264-N265, 14 days	–
^1MDVFMKGLSKAKEGV^15-NH2	–	–	–	–	–	K6-G7, 14 days; also recorded: F4-M5, 14 days; also recorded: L8-S9, 14 days	K6-G7, 14 days; also recorded: F4-M5, 14 days; also recorded: L8-S9, 14 days	K12-E13, 14 days; also recorded: K6-G7, 14 days; also recorded: F4-M5, 14 days; also recorded: L8-S9, 14 days	–
Q.KLVFFAEDVGSNK [hydrolytic fragment 16-28 of Aβ28]	–	–	10%	13%	16%	–	–	–	–
DAEFRHDSGYEVHHQKLV.F [hydrolytic fragment 1-18 of Aβ28]	4%	7%	7%	10%	5%	–	–	–	–
^256VKSKIGSTENLKHQPGGG^273-NH2	–	–	–	–	–	G261-S262, 14 days; also recorded: N265-L266, 14 days	K259-I260, 14 days; also recorded: I260-G261, 14 days; also recorded: E264-N265, 14 days; also recorded: K267-H268, 14 days	N265-L266, 14 days; also recorded: S258-K259, 14 days; also recorded: Q269-P270, 14 days	–
Ac-^1MDVFMKGLSKAKEGV^15-NH2	–	–	–	–	–	K6-G7, 14 days; also recorded: K10-A11, 14 days; also recorded: L8-S9, 14 days	L8-S9, 14 days	L8-S9, 14 days	–
